{"source": "patent US20060204571A1", "about": "“Stable compositions of bupropion or its pharmaceutically acceptable salts” (Sun Pharmaceutical Industries Limited, priority 2005, published 2006)", "origin": "cited, not measured here", "conditions": "background statement", "data": [{"smiles": "CC(NC(C)(C)C)C(=O)c1cccc(Cl)c1.Cl", "note": "(racemic) [Bupropion hydrochloride, (±)-1-(3-chlorophenyl)-2-[(1,1-dimethylethyl)amino]-1-propanone hydrochloride]", "values": [{"measurement": "solubility in water (in words)", "result": "water-soluble"}]}]}
